Reference: PMC11842588, “A first-in-class selective inhibitor of ERK1/2 and ERK5 overcomes drug resistance with a single-molecule strategy” (Signal Transduction and Targeted Therapy, 2025)

Legend:
Assay in all cases: Kinase profiling
Format in all cases: biochemical
IRE1(h) = target: T1, IRE1(h) (Homo sapiens, UniProt O75460)
T1 construct: purchased Eurofins Cerep SA (KinaseProfiler)
Experimental: (§1) 380 kinases inhibitory activities of SKLB-D18 were conducted by Eurofins Cerep SA. The result was illustrated by kinase tree (http://www.kinhub.org/kinmap/).

CLK2(h) = target: T2, CLK2(h) (Homo sapiens, UniProt P49760)
T2 construct: purchased Eurofins Cerep SA (KinaseProfiler)
Experimental: as §1

CK1α(h) = target: T3, CK1α(h) (Homo sapiens, UniProt P48729)
T3 construct: purchased Eurofins Cerep SA (KinaseProfiler)
Experimental: as §1

CaMKIγ(h) = target: T4, CaMKIγ(h) (Homo sapiens, UniProt Q96NX5)
T4 construct: purchased Eurofins Cerep SA (KinaseProfiler)
Experimental: as §1

PRK1(h) = target: T5, PRK1(h) (Homo sapiens, UniProt Q16512)
T5 construct: purchased Eurofins Cerep SA (KinaseProfiler)
Experimental: as §1

WNK2(h) = target: T6, WNK2(h) (Homo sapiens, UniProt Q9Y3S1)
T6 construct: purchased Eurofins Cerep SA (KinaseProfiler)
Experimental: as §1

STK32C(h) = target: T7, STK32C(h) (Homo sapiens, UniProt Q86UX6)
T7 construct: purchased Eurofins Cerep SA (KinaseProfiler)
Experimental: as §1

MLK3(h) = target: T8, MLK3(h) (Homo sapiens, UniProt Q16584)
T8 construct: purchased Eurofins Cerep SA (KinaseProfiler)
Experimental: as §1

TAK1(h) = target: T9, TAK1(h) (Homo sapiens, UniProt O43318)
T9 construct: purchased Eurofins Cerep SA (KinaseProfiler)
Experimental: as §1

LRRK2(h) = target: T10, LRRK2(h) (Homo sapiens, UniProt Q5S007)
T10 construct: purchased Eurofins Cerep SA (KinaseProfiler)
Experimental: as §1

TSSK3(h) = target: T11, TSSK3(h) (Homo sapiens, UniProt Q96PN8)
T11 construct: purchased Eurofins Cerep SA (KinaseProfiler)
Experimental: as §1

JNK1α1(h) = target: T12, JNK1α1(h) (Homo sapiens, UniProt P45983)
T12 construct: purchased Eurofins Cerep SA (KinaseProfiler)
Experimental: as §1

PAK2(h) = target: T13, PAK2(h) (Homo sapiens, UniProt Q13177)
T13 construct: purchased Eurofins Cerep SA (KinaseProfiler)
Experimental: as §1

BMPR2(h) = target: T14, BMPR2(h) (Homo sapiens, UniProt Q13873)
T14 construct: purchased Eurofins Cerep SA (KinaseProfiler)
Experimental: as §1

TAF1L(h) = target: T15, TAF1L(h) (Homo sapiens, UniProt Q8IZX4)
T15 construct: purchased Eurofins Cerep SA (KinaseProfiler)
Experimental: as §1

MSK2(h) = target: T16, MSK2(h) (Homo sapiens, UniProt O75676)
T16 construct: purchased Eurofins Cerep SA (KinaseProfiler)
Experimental: as §1

PhKγ2(h) = target: T17, PhKγ2(h) (Homo sapiens, UniProt P15735)
T17 construct: purchased Eurofins Cerep SA (KinaseProfiler)
Experimental: as §1

eEF-2K(h) = target: T18, eEF-2K(h) (Homo sapiens, UniProt O00418)
T18 construct: purchased Eurofins Cerep SA (KinaseProfiler)
Experimental: as §1

IRAK4(h) = target: T19, IRAK4(h) (Homo sapiens, UniProt Q9NWZ3)
T19 construct: purchased Eurofins Cerep SA (KinaseProfiler)
Experimental: as §1

[1] = target: T20, PI3 Kinase (p110b/p85a)(h) (Homo sapiens, UniProt P42338)
T20 construct: purchased Eurofins Cerep SA (KinaseProfiler)
Experimental: as §1

CDK17/cyclinY(h) = target: T21, CDK17/cyclinY(h) (Homo sapiens, UniProt Q00537)
T21 construct: purchased Eurofins Cerep SA (KinaseProfiler)
Experimental: as §1

ULK3(h) = target: T22, ULK3(h) (Homo sapiens, UniProt Q6PHR2)
T22 construct: purchased Eurofins Cerep SA (KinaseProfiler)
Experimental: as §1

MARK1(h) = target: T23, MARK1(h) (Homo sapiens, UniProt Q9P0L2)
T23 construct: purchased Eurofins Cerep SA (KinaseProfiler)
Experimental: as §1

MLK1(h) = target: T24, MLK1(h) (Homo sapiens, UniProt P80192)
T24 construct: purchased Eurofins Cerep SA (KinaseProfiler)
Experimental: as §1

Blk(h) = target: T25, Blk(h) (Homo sapiens, UniProt P51451)
T25 construct: purchased Eurofins Cerep SA (KinaseProfiler)
Experimental: as §1

PKCδ(h) = target: T26, PKCδ(h) (Homo sapiens, UniProt Q05655)
T26 construct: purchased Eurofins Cerep SA (KinaseProfiler)
Experimental: as §1

TTBK1(h) = target: T27, TTBK1(h) (Homo sapiens, UniProt Q5TCY1)
T27 construct: purchased Eurofins Cerep SA (KinaseProfiler)
Experimental: as §1

PDK1(h) = target: T28, PDK1(h) (Homo sapiens, UniProt O15530)
T28 construct: purchased Eurofins Cerep SA (KinaseProfiler)
Experimental: as §1

NEK1(h) = target: T29, NEK1(h) (Homo sapiens, UniProt Q96PY6)
T29 construct: purchased Eurofins Cerep SA (KinaseProfiler)
Experimental: as §1

MAPK1(h) = target: T30, MAPK1(h) (Homo sapiens, UniProt P28482)
T30 construct: purchased Eurofins Cerep SA (KinaseProfiler)
Experimental: as §1

DNA-PK(h) = target: T31, DNA-PK(h) (Homo sapiens, UniProt P78527)
T31 construct: purchased Eurofins Cerep SA (KinaseProfiler)
Experimental: as §1

MARK4(h) = target: T32, MARK4(h) (Homo sapiens, UniProt Q96L34)
T32 construct: purchased Eurofins Cerep SA (KinaseProfiler)
Experimental: as §1

DYRK1A(h) = target: T33, DYRK1A(h) (Homo sapiens, UniProt Q13627)
T33 construct: purchased Eurofins Cerep SA (KinaseProfiler)
Experimental: as §1

Flt4(h) = target: T34, Flt4(h) (Homo sapiens, UniProt P35916)
T34 construct: purchased Eurofins Cerep SA (KinaseProfiler)
Experimental: as §1

EphA4(h) = target: T35, EphA4(h) (Homo sapiens, UniProt P54764)
T35 construct: purchased Eurofins Cerep SA (KinaseProfiler)
Experimental: as §1

PKA(h) = target: T36, PKA(h) (Homo sapiens, UniProt P17612)
T36 construct: purchased Eurofins Cerep SA (KinaseProfiler)
Experimental: as §1

DRAK1(h) = target: T37, DRAK1(h) (Homo sapiens, UniProt Q9UEE5)
T37 construct: purchased Eurofins Cerep SA (KinaseProfiler)
Experimental: as §1

LIMK2(h) = target: T38, LIMK2(h) (Homo sapiens, UniProt P53671)
T38 construct: purchased Eurofins Cerep SA (KinaseProfiler)
Experimental: as §1

DCAMKL3(h) = target: T39, DCAMKL3(h) (Homo sapiens, UniProt Q9C098)
T39 construct: purchased Eurofins Cerep SA (KinaseProfiler)
Experimental: as §1

ChaK1(h) = target: T40, ChaK1(h) (Homo sapiens, UniProt Q96QT4)
T40 construct: purchased Eurofins Cerep SA (KinaseProfiler)
Experimental: as §1

GRK5(h) = target: T41, GRK5(h) (Homo sapiens, UniProt P34947)
T41 construct: purchased Eurofins Cerep SA (KinaseProfiler)
Experimental: as §1

T7 sequence (Q86UX6 whole entry): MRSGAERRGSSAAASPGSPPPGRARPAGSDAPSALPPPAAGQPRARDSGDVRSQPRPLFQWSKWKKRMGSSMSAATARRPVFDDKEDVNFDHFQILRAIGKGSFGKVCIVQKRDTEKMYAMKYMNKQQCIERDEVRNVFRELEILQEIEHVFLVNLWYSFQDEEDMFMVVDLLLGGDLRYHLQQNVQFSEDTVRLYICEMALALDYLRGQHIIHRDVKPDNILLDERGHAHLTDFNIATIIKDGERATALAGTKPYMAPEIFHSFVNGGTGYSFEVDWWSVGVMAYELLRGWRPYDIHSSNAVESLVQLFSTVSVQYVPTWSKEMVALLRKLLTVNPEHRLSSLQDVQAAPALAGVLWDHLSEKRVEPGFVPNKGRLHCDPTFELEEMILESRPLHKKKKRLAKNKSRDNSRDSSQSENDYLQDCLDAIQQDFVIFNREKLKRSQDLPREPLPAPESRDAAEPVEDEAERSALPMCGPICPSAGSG
T29 sequence (Q96PY6 whole entry): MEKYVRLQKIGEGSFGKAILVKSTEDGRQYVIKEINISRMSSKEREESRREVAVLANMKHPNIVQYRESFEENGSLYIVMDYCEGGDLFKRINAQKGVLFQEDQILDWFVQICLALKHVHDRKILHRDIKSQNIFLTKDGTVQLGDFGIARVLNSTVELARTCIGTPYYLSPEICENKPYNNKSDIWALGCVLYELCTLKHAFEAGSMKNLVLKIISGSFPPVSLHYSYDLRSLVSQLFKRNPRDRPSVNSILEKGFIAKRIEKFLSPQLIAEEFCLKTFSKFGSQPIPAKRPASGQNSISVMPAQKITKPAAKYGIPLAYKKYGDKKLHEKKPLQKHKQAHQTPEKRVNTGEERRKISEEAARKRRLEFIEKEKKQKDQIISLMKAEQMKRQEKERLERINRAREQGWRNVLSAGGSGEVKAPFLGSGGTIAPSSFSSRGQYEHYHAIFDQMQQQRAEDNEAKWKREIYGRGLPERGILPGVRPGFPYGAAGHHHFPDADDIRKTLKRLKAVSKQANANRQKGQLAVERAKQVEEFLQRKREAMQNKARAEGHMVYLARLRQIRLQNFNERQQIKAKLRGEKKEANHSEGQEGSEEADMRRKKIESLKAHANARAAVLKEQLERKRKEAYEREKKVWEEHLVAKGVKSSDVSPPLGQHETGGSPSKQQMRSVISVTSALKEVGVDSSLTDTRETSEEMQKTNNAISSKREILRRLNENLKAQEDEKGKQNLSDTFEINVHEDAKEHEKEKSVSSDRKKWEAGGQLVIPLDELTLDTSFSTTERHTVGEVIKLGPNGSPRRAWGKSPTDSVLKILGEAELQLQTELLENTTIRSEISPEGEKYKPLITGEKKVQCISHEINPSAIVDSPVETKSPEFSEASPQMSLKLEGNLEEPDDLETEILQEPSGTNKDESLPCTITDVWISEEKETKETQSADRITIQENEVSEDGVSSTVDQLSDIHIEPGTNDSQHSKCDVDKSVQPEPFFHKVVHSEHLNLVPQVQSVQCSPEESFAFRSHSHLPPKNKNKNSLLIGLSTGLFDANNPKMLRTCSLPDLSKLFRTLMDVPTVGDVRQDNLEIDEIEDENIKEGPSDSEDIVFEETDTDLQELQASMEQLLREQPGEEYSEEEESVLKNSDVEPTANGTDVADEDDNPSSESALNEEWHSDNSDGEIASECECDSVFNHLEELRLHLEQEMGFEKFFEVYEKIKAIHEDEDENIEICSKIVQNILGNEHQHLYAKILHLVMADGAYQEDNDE
T28 sequence (O15530 whole entry): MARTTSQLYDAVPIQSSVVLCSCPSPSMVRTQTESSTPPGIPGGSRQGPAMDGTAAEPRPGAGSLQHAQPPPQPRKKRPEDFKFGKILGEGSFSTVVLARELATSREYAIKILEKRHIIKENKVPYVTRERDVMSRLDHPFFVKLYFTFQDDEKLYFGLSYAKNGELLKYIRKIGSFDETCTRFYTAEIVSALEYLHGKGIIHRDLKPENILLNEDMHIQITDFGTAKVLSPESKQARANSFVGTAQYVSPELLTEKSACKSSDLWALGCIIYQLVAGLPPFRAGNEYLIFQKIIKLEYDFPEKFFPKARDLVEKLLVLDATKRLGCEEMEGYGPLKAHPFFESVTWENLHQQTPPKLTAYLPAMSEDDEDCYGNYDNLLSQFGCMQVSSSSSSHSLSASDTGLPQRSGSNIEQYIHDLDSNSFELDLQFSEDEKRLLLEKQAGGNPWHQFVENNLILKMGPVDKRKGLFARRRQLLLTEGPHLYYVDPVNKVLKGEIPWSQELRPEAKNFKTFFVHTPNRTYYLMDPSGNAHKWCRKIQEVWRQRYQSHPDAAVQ
T34 sequence (P35916 25-1363): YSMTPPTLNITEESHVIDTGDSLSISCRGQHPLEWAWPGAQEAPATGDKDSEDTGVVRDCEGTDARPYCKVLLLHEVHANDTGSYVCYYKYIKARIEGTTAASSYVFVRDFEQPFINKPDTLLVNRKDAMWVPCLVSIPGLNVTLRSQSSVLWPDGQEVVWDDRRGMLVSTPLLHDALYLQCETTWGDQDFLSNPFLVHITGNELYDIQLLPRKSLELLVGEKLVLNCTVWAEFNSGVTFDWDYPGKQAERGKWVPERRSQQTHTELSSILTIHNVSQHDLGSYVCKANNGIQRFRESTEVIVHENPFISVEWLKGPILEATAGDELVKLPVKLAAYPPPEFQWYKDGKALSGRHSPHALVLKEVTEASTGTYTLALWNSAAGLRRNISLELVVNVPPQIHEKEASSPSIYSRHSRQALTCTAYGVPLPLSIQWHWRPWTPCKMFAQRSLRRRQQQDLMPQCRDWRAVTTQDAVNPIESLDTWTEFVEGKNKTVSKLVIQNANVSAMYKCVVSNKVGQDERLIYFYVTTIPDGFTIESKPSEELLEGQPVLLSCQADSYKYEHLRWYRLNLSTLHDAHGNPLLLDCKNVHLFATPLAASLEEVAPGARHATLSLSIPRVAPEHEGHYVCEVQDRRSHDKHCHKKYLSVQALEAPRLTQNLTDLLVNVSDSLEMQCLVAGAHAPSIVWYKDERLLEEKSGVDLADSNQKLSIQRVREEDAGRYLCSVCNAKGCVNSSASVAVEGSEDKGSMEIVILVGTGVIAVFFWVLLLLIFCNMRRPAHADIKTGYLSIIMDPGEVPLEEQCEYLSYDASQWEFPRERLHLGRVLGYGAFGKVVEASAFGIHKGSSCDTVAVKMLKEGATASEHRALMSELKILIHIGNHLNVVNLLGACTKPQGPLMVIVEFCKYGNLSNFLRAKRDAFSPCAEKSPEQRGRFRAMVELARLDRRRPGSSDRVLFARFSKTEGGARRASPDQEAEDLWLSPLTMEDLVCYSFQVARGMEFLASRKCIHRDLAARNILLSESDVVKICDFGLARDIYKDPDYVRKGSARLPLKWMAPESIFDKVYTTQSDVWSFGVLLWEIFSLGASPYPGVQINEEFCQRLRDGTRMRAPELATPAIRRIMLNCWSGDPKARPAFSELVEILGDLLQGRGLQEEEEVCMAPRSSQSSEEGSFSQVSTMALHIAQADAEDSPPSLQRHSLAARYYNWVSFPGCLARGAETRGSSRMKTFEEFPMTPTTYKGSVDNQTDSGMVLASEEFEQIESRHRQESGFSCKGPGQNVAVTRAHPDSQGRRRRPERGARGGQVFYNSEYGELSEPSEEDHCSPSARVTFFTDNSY
T11 sequence (Q96PN8 whole entry): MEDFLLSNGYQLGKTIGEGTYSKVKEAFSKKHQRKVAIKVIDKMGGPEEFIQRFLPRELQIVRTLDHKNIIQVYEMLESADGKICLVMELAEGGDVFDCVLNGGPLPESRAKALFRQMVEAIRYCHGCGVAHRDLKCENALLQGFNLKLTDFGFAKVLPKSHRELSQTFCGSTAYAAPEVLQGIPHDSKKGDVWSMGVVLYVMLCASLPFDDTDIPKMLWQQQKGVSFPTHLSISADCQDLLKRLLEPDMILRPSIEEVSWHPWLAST
T41 sequence (P34947 whole entry): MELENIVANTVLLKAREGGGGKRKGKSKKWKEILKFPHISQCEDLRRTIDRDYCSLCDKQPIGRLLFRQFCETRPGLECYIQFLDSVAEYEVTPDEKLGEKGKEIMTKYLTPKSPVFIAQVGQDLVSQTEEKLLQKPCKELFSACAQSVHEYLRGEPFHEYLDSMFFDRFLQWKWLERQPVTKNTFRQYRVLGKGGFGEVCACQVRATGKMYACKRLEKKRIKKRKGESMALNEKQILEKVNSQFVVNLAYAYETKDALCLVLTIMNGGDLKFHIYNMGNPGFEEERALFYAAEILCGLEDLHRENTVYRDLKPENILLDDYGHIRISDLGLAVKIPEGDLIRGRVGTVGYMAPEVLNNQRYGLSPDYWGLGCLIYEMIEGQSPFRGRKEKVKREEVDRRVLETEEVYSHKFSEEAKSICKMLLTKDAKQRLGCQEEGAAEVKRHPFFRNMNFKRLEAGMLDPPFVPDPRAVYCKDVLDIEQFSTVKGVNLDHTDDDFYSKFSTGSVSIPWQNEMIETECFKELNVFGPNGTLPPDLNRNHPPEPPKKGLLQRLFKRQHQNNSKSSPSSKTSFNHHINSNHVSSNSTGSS
T9 sequence (O43318 1-303 limits assumed): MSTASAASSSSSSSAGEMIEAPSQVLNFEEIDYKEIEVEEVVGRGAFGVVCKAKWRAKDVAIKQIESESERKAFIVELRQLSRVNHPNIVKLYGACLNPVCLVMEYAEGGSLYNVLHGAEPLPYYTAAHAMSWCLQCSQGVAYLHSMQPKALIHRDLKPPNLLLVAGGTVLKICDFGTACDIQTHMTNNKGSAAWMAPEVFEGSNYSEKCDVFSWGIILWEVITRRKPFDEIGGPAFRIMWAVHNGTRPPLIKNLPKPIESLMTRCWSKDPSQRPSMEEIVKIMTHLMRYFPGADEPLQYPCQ

Compound: CN(C)Cc1cccc(Nc2ncc(Cl)c(-c3csc(C(=O)NN4CCOCC4)c3)n2)c1 [SKLB-D18, 4-(5-chloro-2-((3-((dimethylamino)methyl)phenyl)amino)pyrimidin-4-yl)-N-morpholinothiophene-2-carboxamide]
- inhibition at 1 µM (IRE1(h)): 2%
- inhibition at 1 µM (CLK2(h)): 58%
- inhibition at 1 µM (CK1α(h)): 8%
- inhibition at 1 µM (CaMKIγ(h)): 12%
- inhibition at 1 µM (PRK1(h)): 73%
- inhibition at 1 µM (WNK2(h)): 24%
- inhibition at 1 µM (STK32C(h)): 1%
- inhibition at 1 µM (MLK3(h)): 69%
- inhibition at 1 µM (TAK1(h)): 64%
- inhibition at 1 µM (LRRK2(h)): 65%
- inhibition at 1 µM (TSSK3(h)): 53%
- inhibition at 1 µM (JNK1α1(h)): 40%
- inhibition at 1 µM (PAK2(h)): 12%
- inhibition at 1 µM (BMPR2(h)): 21%
- inhibition at 1 µM (TAF1L(h)): 53%
- inhibition at 1 µM (MSK2(h)): 16%
- inhibition at 1 µM (PhKγ2(h)): 19%
- inhibition at 1 µM (eEF-2K(h)): -2%
- inhibition at 1 µM (IRAK4(h)): 47%
- inhibition at 1 µM [1]: 8%
- inhibition at 1 µM (CDK17/cyclinY(h)): 57%
- inhibition at 1 µM (ULK3(h)): 45%
- inhibition at 1 µM (MARK1(h)): 64%
- inhibition at 1 µM (MLK1(h)): 61%
- inhibition at 1 µM (Blk(h)): -5%
- inhibition at 1 µM (PKCδ(h)): 23%
- inhibition at 1 µM (TTBK1(h)): -5%
- inhibition at 1 µM (PDK1(h)): 42%
- inhibition at 1 µM (NEK1(h)): 48%
- inhibition at 1 µM (MAPK1(h)): 94%
- inhibition at 1 µM (DNA-PK(h)): 10%
- inhibition at 1 µM (MARK4(h)): 64%
- inhibition at 1 µM (DYRK1A(h)): 13%
- inhibition at 1 µM (Flt4(h)): 63%
- inhibition at 1 µM (EphA4(h)): 6%
- inhibition at 1 µM (PKA(h)): 19%
- inhibition at 1 µM (DRAK1(h)): 44%
- inhibition at 1 µM (LIMK2(h)): 17%
- inhibition at 1 µM (DCAMKL3(h)): 66%
- inhibition at 1 µM (ChaK1(h)): 0%
- inhibition at 1 µM (GRK5(h)): -1%
